Measurements from patent US20210030867A1, “ADJUVANT COMPOSITION CONTAINING ALUMINUM AND VACCINE COMPOSITION CONTAINING THE SAME” (TERUMO KABUSHIKI KAISHA, priority 2015, published 2021).

B1: antigen alone: OVA protein (Ovalbumin, low endotoxin) administered alone as comparative sample (protein, UniProt P01012 2-386, looked up)
Ovalbumin: GSIGAASMEFCFDVFKELKVHHANENIFYCPIAIMSALAMVYLGAKDSTRTQINKVVRFDKLPGFGDSIEAQCGTSVNVHSSLRDILNQITKPNDVYSFSLASRLYAEERYPILPEYLQCVKELYRGGLEPINFQTAADQARELINSWVESQTNGIIRNVLQPSSVDSQTAMVLVNAIVFKGLWEKAFKDEDTQAMPFRVTEQESKPVQMMYQIGLFRVASMASEKMKILELPFASGTMSMLVLLPDEVSGLEQLESIINFEKLTEWTSSNVMEERKIKVYLPRMKMEEKYNLTSVLMAMGITDVFSSSANLSGISSAESLKISQAVHAAHAEINEAGREVVGSAEAGVDAASVSEEFRADHPFLFCIKHIATNAVLFFGRCVSP
modifications: low endotoxin

What was measured:
[1] = Release test (measurement of leakage; membrane-disruption function); conditions: for pH 5.0 Leakage (%) Lb5.0 Amphipathic substance alone / pH 7.4 Leakage (%) Lb7.4 Amphipathic substance alone: labelled amphipathic substance alone; for pH 5.0 Leakage (%) La5.0 pH-sensitive compound alone / pH 7.4 Leakage (%) La7.4 pH-sensitive compound alone: labelled pH-sensitive compound alone
Description: The term “membrane-disruption function” means a function to bring about release in the release test. The release test described herein is a test consisting of the steps of adding liposomes (dispersion) embracing an aqueous solution containing a quenching substance and a fluorescent substance and a dispersion of an evaluation sample to a properly pH-adjusted aqueous solution, incubating the resulting aqueous solution at 37° C. for 90 minutes or 30 minutes, and measuring the intensity of fluorescence of the incubated aqueous solution. This method makes it possible to measure the amount of the fluorescent substance which has been released from the liposomes, and to confirm the membrane-disruption function of the pH-sensitive carrier. Note that the release test will be described in more detail in the Examples to be described later.
The leakage was evaluated according to the method described in K. Kono et al., Bioconjugate Chem. 2008 19 1040-1048. The evaluation was performed using EYPC liposomes which contain Pyranine as a fluorescent substance and DPX as a quencher.
3,000 nmol of EYPC dissolved in chloroform was measured and placed in a 10-mL eggplant-shaped flask, and the EYPC was made into thin film by means of a rotary evaporator. To the flask was added 500 μL of a Pyranine solution (Pyranine: 35 mM, DPX: 50 mM, MES: 25 mM, pH 7.4), followed by dispersion using an ultrasonic irradiator (USC-J), and then the resulting dispersion was passed through a polycarbonate film having a pore diameter of 100 nm by use of an extruder, so as to make the particle diameter uniform. The resulting dispersion underwent substitution of the outer aqueous layer using MES Buffer and G100 column, to obtain a dispersion of EYPC liposomes embracing the fluorescent substance. The concentration of the phospholipid was determined using phospholipid C-test Wako, and it was adjusted with MES Buffer so that phospholipid became 1.0 mmol/L.
20 μL of the dispersion of EYPC liposomes adjusted in concentration and 20 μL of an evaluation sample dispersion were added to 2960 μL of pH-adjusted MES Buffer, and the resulting mixture was subjected to incubation at 37° C. for 90 or 30 minutes (Values resulting from incubation for 90 minutes are adopted in Examples, unless otherwise specified.). Fluorescence at Ex461 nm and Em512 nm was observed by use of a spectrophotometer FP-6500 to monitor the leakage.
Note that the leakage was calculated assuming that the value in the case of using the dispersion alone of EYPC liposomes is 0% and the value in the case of adding 30 μL of 10-fold diluted Triton-X100 is 100%. Specifically, the leakage was calculated according to the following formula. Note that in the following formula, L represents the intensity of fluorescence measured, L0 represents the intensity of fluorescence of only the dispersion of EYPC liposomes embracing the fluorescent substance, and L100 represents the intensity of fluorescence in the case of adding Triton-X100.
First, the influence on the effect of promoting the membrane-disruption function was examined. […] After incubating the evaluation samples overnight, part (20 μL) of each evaluation sample was put to a release test. The release test was conducted according to the above-described release test.

[2] = test system: cell-mediated immunity (CTL); assay: Induction of cell-mediated immunity (CTL) in immunized mice, IFNγ ELIspot method on spleen cells; type: in vivo, C57BL/6N mouse
Description: Administration was performed under anesthesia. In the case of subcutaneous administration, it is carried out by subcutaneous injection, 100 μL/head, at one position on the back. […] As for the pH-sensitive carrier, a fundamental dose concentration for the amphipathic substance was 100 nmol/head, that for the pH-sensitive compound was 10 to 640 nmol/head, and part thereof was administered in diluted conditions. As the antigen, OVA protein or OVA peptide was used, the dose being 80 μg/head. […] In the case of evaluating cell-mediated immunity, administration was performed once and assay was conducted seven days after the administration.
The mouse was euthanized on the seventh day after the last administration and had its spleen extracted. After addition of 3.0 mL of RPMI medium containing 10% serum, the spleen was treated by the BD Falcon cell strainer, to obtain a suspension of cells. The cells were subjected to hemolysis with RBC lysis buffer, followed by washing with RPMI medium containing 10% serum. The cells were dispersed into RPMI medium containing 10% serum, after which the number of cells was counted, and a dispersion of spleen cells was obtained.
The ELIspot method was carried out by using the Mouse IFNγ ELISPOT Set. One day before cell inoculation, the 96-well ELispot plate was allowed to adsorb the detection antibody attached to the kit, to make the plate. The thus made plate was washed with RPMI medium containing 10% serum, after which 200 μL of 10% serum-containing RPMI medium was added thereto, and the plate was left to stand at 37° C. for two hours for blocking. The plate was washed with 10% serum-containing RPMI medium. In the case where the antigen undergoes restimulation, 100 μL of 10% serum-containing RPMI medium containing 40 μg/mL of OVA peptide was added to the plate. […]
The candidate substances were all used in an amount of 10 μg per mouse, and OVA protein was used as the antigen in an amount of 80 μg per mouse. […] Induction of cell-mediated immunity was evaluated according to the ELispot method described hereinabove. […]

[3] = subcutaneous, once, assay after seven days, candidate substance/alum 10 μg, OVA protein 80 μg per mouse, carrier where used 100 nmol DLPC + 160 nmol deoxycholic acid, restimulation with OVA peptide

Molecule | pH 5.0 Leakage (%) Lb5.0 Amphipathic substance alone ([1]; pH 5.0) | pH 7.4 Leakage (%) Lb7.4 Amphipathic substance alone [1] | also measured
Cc1c(C)c2c(c(C)c1O)CCC(C)(CCCC(C)CCCC(C)CCCC(C)C)O2 (racemic) [Tocopherol, DL-α-tocopherol] | 1.2% | 1.7% | induction of cell-mediated immunity (spot formation, ELIspot) ([2]; mouse, in vivo, sc): did not induce cell-mediated immunity
CC(=O)Oc1c(C)c(C)c2c(c1C)CCC(C)(CCC[C@H](C)CCC[C@H](C)CCCC(C)C)O2 (mixture of isomers) [tocopherol acetate, DL-α-tocopherol acetate, reference compound] | – | – | induction of cell-mediated immunity (spot formation, ELIspot) [2, 3]: did not induce cell-mediated immunity
C[C@H](CCC(=O)O)[C@H]1CC[C@H]2[C@@H]3[C@H](O)C[C@@H]4C[C@H](O)CC[C@]4(C)[C@H]3CC[C@]12C [Chenodeoxycholic acid] | – | – | pH 5.0 Leakage (%) La5.0 pH-sensitive compound alone ([1]; pH 5.0): 3.1%; pH 7.4 Leakage (%) La7.4 pH-sensitive compound alone [1]: 1.1%
CCCCCCCCCC(=O)OC[C@H](COP(=O)([O-])OCC[N+](C)(C)C)OC(=O)CCCCCCCCC [DDPC, 1,2-didecanoyl-sn-glycero-3-phosphatidylcholine] | 10.1% | 8.4% | –
CCCCCCCCCCCC(=O)OC[C@H](COP(=O)([O-])OCC[N+](C)(C)C)OC(=O)CCCCCCCCCCC [DLPC, 1,2-dilauroyl-sn-glycero-3-phosphatidylcholine] | – | – | pH 5.0 Leakage (%) Lb5.0 Amphipathic substance (DLPC) alone ([1]; pH 5.0, DLPC alone): 1.9%
CCCCCCCCCCCCCCCCCC(=O)OCC(CO)OC(=O)CCCCCCCCCCCCCCCCC (centres unmarked) [Glycerol distearate, glycerol distearate] | 4.0% | 0.3% | –
CCCCCCCC/C=C\CCCCCCCC(=O)OCC(O)CO (centres unmarked) [Glycerol monooleate, glycerol monooleate] | 6.0% | 4.1% | –
CC(CCC(=O)NCC(=O)O)C1CCC2C3CCC4CC(O)CCC4(C)C3CC(O)C12C (centres unmarked) [Glycodeoxycholic acid] | – | – | pH 5.0 Leakage (%) La5.0 pH-sensitive compound alone ([1]; pH 5.0): 5.9%; pH 7.4 Leakage (%) La7.4 pH-sensitive compound alone [1]: 1.6%
CC1(C)[C@@H](O[C@H]2O[C@H](C(=O)O)[C@@H](O)[C@H](O)[C@H]2O[C@@H]2O[C@H](C(=O)O)[C@@H](O)[C@H](O)[C@H]2O)CC[C@]2(C)[C@H]3C(=O)C=C4[C@@H]5C[C@@](C)(C(=O)O)CC[C@]5(C)CC[C@@]4(C)[C@]3(C)CC[C@@H]12 [Glycyrrhizinic acid] | 4.0% | 0.3% | pH 5.0 Leakage (%) La5.0 pH-sensitive compound alone ([1]; pH 5.0): 3.0%; pH 7.4 Leakage (%) La7.4 pH-sensitive compound alone [1]: 0.8%
C[C@H](CCC(=O)O)[C@H]1CC[C@H]2[C@@H]3C[C@H](O)[C@@H]4C[C@H](O)CC[C@]4(C)[C@H]3CC[C@]12C [Hyodeoxycholic acid] | – | – | pH 5.0 Leakage (%) La5.0 pH-sensitive compound alone ([1]; pH 5.0): 2.8%; pH 7.4 Leakage (%) La7.4 pH-sensitive compound alone [1]: 0.6%
CCCCCCCCCCCC(=O)OCC(O)COC(=O)CCCCCCCCCCC [α,α′-dilaurin] | 0.8% | 1.0% | –
Polyoxyethylene 10 castor oil [Peg (10) castor oil] | 6.2% | 3.4% | –
polyoxyethylene sorbitan monolauric acid ester [Tween 20] | 48.8% | 50.4% | –
polyoxyethylene sorbitan monooleic acid ester [Tween 80] | 1.6% | 0.6% | –
polyoxyethylene sorbitan monopalmitic acid ester [Tween 40] | 11.5% | 8.3% | –
polyoxyethylene sorbitan monostearic acid ester [Tween 60] | 6.7% | 3.8% | –
sorbitan monooleate [Span80] | 7.3% | 4.4% | –
sorbitan palimitic acid ester [Span40] | 1.6% | 0.6% | –
sorbitan stearic acid ester [Span60] | 4.3% | 1.6% | –
sorbitan trioleic acid ester [Span85] | 2.0% | 1.8% | –
sorbitan tristearic acid ester [Span65] | 4.2% | 1.5% | –
B1 | – | – | induction of cell-mediated immunity (spot formation, ELIspot) [2, 3]: did not induce cell-mediated immunity
